Measurements taken from patent US20160175306A1, “COMBINATION OF A IMIDAZOPYRIDAZINE DERIVATIVE AND A MITOTIC AGENT FOR THE TREATMENT OF CANCER” (BAYER PHARMA AKTIENGESELLSCHAFT, priority 2013, published 2016).

Key:
human kinase Mps-1 = target: T1, human kinase Mps-1 (Homo sapiens, UniProt P33981); experiment: Mps-1 Kinase Assay (TR-FRET); type: biochemical; conditions: 10 μM ATP
T1 construct: N-terminally GST-tagged human full length recombinant Mps-1 kinase; purchased Invitrogen, Karslruhe, Germany PV4071
T1 sequence (P33981 1-857): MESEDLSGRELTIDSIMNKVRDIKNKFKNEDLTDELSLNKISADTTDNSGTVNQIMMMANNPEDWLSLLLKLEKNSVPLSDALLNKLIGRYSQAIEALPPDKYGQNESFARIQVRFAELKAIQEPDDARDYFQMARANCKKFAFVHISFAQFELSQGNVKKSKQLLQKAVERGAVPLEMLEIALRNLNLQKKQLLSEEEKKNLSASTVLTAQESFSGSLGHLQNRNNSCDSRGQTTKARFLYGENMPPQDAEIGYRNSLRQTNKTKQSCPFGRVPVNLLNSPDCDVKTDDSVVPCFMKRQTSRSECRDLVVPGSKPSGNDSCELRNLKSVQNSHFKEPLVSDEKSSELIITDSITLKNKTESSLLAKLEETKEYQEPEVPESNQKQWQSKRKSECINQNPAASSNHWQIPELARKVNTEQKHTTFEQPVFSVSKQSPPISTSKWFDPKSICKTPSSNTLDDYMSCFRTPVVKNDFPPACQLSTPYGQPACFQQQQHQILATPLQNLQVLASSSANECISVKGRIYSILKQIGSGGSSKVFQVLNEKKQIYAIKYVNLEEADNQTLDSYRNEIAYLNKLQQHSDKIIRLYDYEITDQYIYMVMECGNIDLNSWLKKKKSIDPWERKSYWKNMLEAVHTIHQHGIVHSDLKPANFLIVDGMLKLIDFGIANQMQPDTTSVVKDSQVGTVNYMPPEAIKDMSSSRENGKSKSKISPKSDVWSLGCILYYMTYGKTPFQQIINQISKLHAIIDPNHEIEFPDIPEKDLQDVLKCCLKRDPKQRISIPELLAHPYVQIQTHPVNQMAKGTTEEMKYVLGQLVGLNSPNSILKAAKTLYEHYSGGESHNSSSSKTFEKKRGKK
Procedure: The human kinase Mps-1 phosphorylates a biotinylated substrate peptide. Detection of the phosphorylated product is achieved by time-resolved fluorescence resonance energy transfer (TR-FRET) from Europium-labelled anti-phospho-Serine/Threonine antibody as donor to streptavidin Labelled with cross-linked allophycocyanin (SA-XLent) as acceptor. Compounds are tested for their inhibition of the kinase activity.
N-terminally GST-tagged human full length recombinant Mps-1 kinase (purchased from Invitrogen, Karslruhe, Germany, cat. no PV4071) was used. As substrate for the kinase reaction a biotinylated peptide of the amino-acid sequence […] (C-terminus in amide form, purchased from Biosynthan GmbH, Berlin) was used.
The concentration of Mps-1 in the assay was adjusted to the activity of the enzyme lot and was chosen appropriate to have the assay in the linear range, typical enzyme concentrations were in the range of about 1 nM (final conc. in the 5 μl assay volume).
The resulting mixture was incubated 1 h at 22° C. to allow the binding of the phosphorylated peptide to the anti-phospho(Ser/Thr)-Europium-antibody. Subsequently the amount of phosphorylated substrate was evaluated by measurement of the resonance energy transfer from the Europium-labelled anti-phospho(Ser/Thr) antibody to the Streptavidin-XLent.

rat hepatocytes = experiment: In vitro metabolic stability in rat hepatocytes; type: in vitro ADME; conditions: 1 μM test compound, calculated from half-life
Procedure: Investigation of In Vitro Metabolic Stability in Rat Hepatocytes (Including Calculation of Hepatic In Vivo Blood Clearance (CL))
Hepatocytes from Han Wistar rats were isolated via a 2-step perfusion method. After perfusion, the liver was carefully removed from the rat: the liver capsule was opened and the hepatocytes were gently shaken out into a Petri dish with ice-cold WME. The resulting cell suspension was filtered through sterile gaze in 50 ml falcon tubes and centrifuged at 50×g for 3 min at room temperature.
The cell pellet was resuspended in 30 ml WME and centrifuged through a Percoll® gradient for 2 times at 100×g. The hepatocytes were washed again with Williams' medium E (WME) and resuspended in medium containing 5% FCS. Cell viability was determined by trypan blue exclusion.
For the metabolic stability assay liver cells were distributed in WME containing 5% FCS to glass vials at a density of 1.0×10^6 vital cells/m. The test compound was added to a final concentration of 1 μM. During incubation, the hepatocyte suspensions were continuously shaken and aliquots were taken at 2, 8, 16, 30, 45 and 90 min, to which equal volumes of cold methanol were immediately added. Samples were frozen at −20° C. over night, after subsequently centrifuged for 15 minutes at 3000 rpm and the supernatant was analyzed with an Agilent 1200 HPLC-system with LCMS/MS detection.
The half-life of a test compound was determined from the concentration-time plot. From the half-life the intrinsic clearances were calculated. Together with the additional parameters liver blood flow, amount of liver cells in vivo and in vitro. The hepatic in vivo blood clearance (CL) and the maximal oral bioavailability (Fmax) was calculated. The following parameter values were used: Liver blood flow—4.2 L/h/kg rat; specific liver weight—32 g/kg rat body weight; liver cells in vivo—1.1×10^8 cells/g liver, liver cells in vitro—0.5×10^6/ml.

SMILES	IC50 (human kinase Mps-1) [nM]	Fmax (maximal oral bioavailability) (rat hepatocytes) [%]
Cc1cc(-c2cnc3c(NCCC(F)(F)F)cc(C(O)c4cccc(F)c4O)nn23)ccc1C(=O)NC1CC1 (racemic) [Compound A3, (RS)—N-Cyclopropyl-4-{6-[(3-fluoro-2-hydroxyphenyl)(hydroxy)methyl]-8-[(3,3,3-trifluoropropyl)amino]imidazo[1,2-b]pyridazin-3-yl}-2-methylbenzamide]	0.2	18
Cc1cc(-c2cnc3c(NCCC(F)(F)F)cc(C(C)(O)c4cccc(F)c4O)nn23)ccc1C(=O)NC1CC1 (racemic) [Compound A4, (RS)—N-Cyclopropyl-4-{6-[1-(3-fluoro-2-hydroxyphenyl)-1-hydroxyethyl]-8-[(3,3,3-trifluoropropyl)amino]imidazo[1,2-b]pyridazin-3-yl}-2-methylbenzamide]	0.3	36
Cc1cc(-c2cnc3c(NCCC(F)(F)F)cc(C(F)c4cccc(F)c4)nn23)ccc1C(=O)NC1CC1 (racemic) [Compound A5, (RS)—N-Cyclopropyl-4-{6-[fluoro(3-fluorophenyl)methyl]-8-[(3,3,3-trifluoropropyl)amino]imidazo[1,2-b]pyridazin-3-yl}-2-methylbenzamide]	0.7	49
Cc1cc(-c2cnc3c(NCCC(F)(F)F)cc(C(O)c4cc(F)ccc4F)nn23)ccc1C(=O)NC1CC1 (racemic) [Compound A11, (RS)—N-Cyclopropyl-4-{6-[(2,5-difluorophenyl)(hydroxy)methyl]-8-[(3,3,3-trifluoropropyl)amino]imidazo[1,2-b]pyridazin-3-yl}-2-methylbenzamide]	0.3	45
COc1ccc(Cc2cc(NCCC(F)(F)F)c3ncc(-c4ccc(C(=O)NC5CC5)c(C)c4)n3n2)cc1F [Comparative Example 1, N-Cyclopropyl-4-{6-(3-fluoro-4-methoxybenzyl)-8-[(3,3,3-trifluoropropyl)amino]imidazo[1,2-b]pyridazin-3-yl}-2-methylbenzamide, reference compound]		29
Cc1cc(-c2cnc3c(NCCC(F)(F)F)cc(Cc4cccc(F)c4O)nn23)ccc1C(=O)NC1CC1 [Comparative Example 2, N-Cyclopropyl-4-{6-(3-fluoro-2-hydroxybenzyl)-8-[(3,3,3-trifluoropropyl)amino]imidazo[1,2-b]pyridazin-3-yl}-2-methylbenzamide, reference compound]		3
Cc1cc(-c2cnc3c(NCCC(F)(F)F)cc(Cc4cccc(F)c4)nn23)ccc1C(=O)NC1CC1 [Comparative Example 3, N-Cyclopropyl-4-{6-(3-fluorobenzyl)-8-[(3,3,3-trifluoropropyl)amino]imidazo[1,2-b]pyridazin-3-yl}-2-methylbenzamide, reference compound]		43
COc1cccc(Cc2cc(NCCC(F)(F)F)c3ncc(-c4ccc(C(=O)NC5CC5)c(C)c4)n3n2)c1 [Comparative Example 4, N-cyclopropyl-4-{6-(3-methoxybenzyl)-8-[(3,3,3-trifluoropropyl)amino]imidazo[1,2-b]pyridazin-3-yl}-2-methylbenzamide, reference compound]		18
COc1ccc(Cc2cc(NCCC(F)(F)F)c3ncc(-c4ccc(C(=O)NC5CC5)c(C)c4)n3n2)cc1 [Comparative Example 5, N-Cyclopropyl-4-{6-(4-methoxybenzyl)-8-[(3,3,3-trifluoropropyl)amino]imidazo[1,2-b]pyridazin-3-yl}-2-methylbenzamide, reference compound]		35
C=C(c1ccc(OC)c(F)c1)c1cc(NCCC(F)(F)F)c2ncc(-c3ccc(C(=O)NC4CC4)c(C)c3)n2n1 [Compound A1, N-Cyclopropyl-4-{6-[1-(3-fluoro-4-methoxyphenyl)ethenyl]-8-[(3,3,3-trifluoropropyl)amino]imidazo[1,2-b]pyridazin-3-yl}-2-methylbenzamide]		39
Cc1cc(-c2cnc3c(NCCC(F)(F)F)cc(C(F)(F)c4cccc(F)c4)nn23)ccc1C(=O)NC1CC1 [Compound A6, N-Cyclopropyl-4-{6-[difluoro(3-fluorophenyl)methyl]-8-[(3,3,3-trifluoropropyl)amino]imidazo[1,2-b]pyridazin-3-yl}-2-methylbenzamide]		70
COc1ccc(C(=O)c2cc(NCCC(F)(F)F)c3ncc(-c4ccc(C(=O)NC5CC5)c(C)c4)n3n2)cc1F [Compound A13, N-Cyclopropyl-4-{6-(3-fluoro-4-methoxybenzoyl)-8-[(3,3,3-trifluoropropyl)amino]imidazo[1,2-b]pyridazin-3-yl}-2-methylbenzamide]		75
COc1ccc(C(F)(F)c2cc(NCCC(F)(F)F)c3ncc(-c4ccc(C(=O)NC5CC5)c(C)c4)n3n2)cc1 [Compound A16, N-Cyclopropyl-4-{6-[difluoro(4-methoxyphenyl)methyl]-8-[(3,3,3-trifluoropropyl)amino]imidazo[1,2-b]pyridazin-3-yl}-2-methylbenzamide]		56
Cc1cc(-c2cnc3c(NCCC(F)(F)F)cc(C4(c5cccc(F)c5F)CC4)nn23)ccc1C(=O)NC1CC1 [Compound A17, N-Cyclopropyl-4-{6-[1-(2,3-difluorophenyl)cyclopropyl]-8-[(3,3,3-trifluoropropyl)amino]imidazo[1,2-b]pyridazin-3-yl}-2-methylbenzamide]		50
C=C(c1cc(NCCC(F)(F)F)c2ncc(-c3ccc(C(=O)NC4CC4)c(C)c3)n2n1)c1cc(F)ccc1F [Compound A19, N-Cyclopropyl-4-{6-[1-(2,5-difluorophenyl)vinyl]-8-[(3,3,3-trifluoropropyl)amino]imidazo[1,2-b]pyridazin-3-yl}-2-methylbenzamide]	0.6	
Cc1cc(-c2cnc3c(NCCC(F)(F)F)cc(C4(c5cc(F)ccc5F)CC4)nn23)ccc1C(=O)NC1CC1 [Compound A20, N-Cyclopropyl-4-{6-[1-(2,5-difluorophenyl)cyclopropyl]-8-[(3,3,3-trifluoropropyl)amino]imidazo[1,2-b]pyridazin-3-yl}-2-methylbenzamide]	0.8	
Cc1cc(-c2cnc3c(NCCC(F)(F)F)cc(C(F)(F)c4cc(F)ccc4F)nn23)ccc1C(=O)NC1CC1 [Compound A21, N-Cyclopropyl-4-{6-[(2,5-difluorophenyl)(difluoro)methyl]-8-[(3,3,3-trifluoropropyl)amino]imidazo[1,2-b]pyridazin-3-yl}-2-methylbenzamide]	0.5	
Cc1cc(-c2cnc3c(NCCC(F)(F)F)cc(C4(c5cc(F)ccc5O)CC4)nn23)ccc1C(=O)NC1CC1 [Compound A23, N-cyclopropyl-4-{6-[1-(5-fluoro-2-hydroxyphenyl)cyclopropyl]-8-[(3,3,3-trifluoropropyl)amino]imidazo[1,2-b]pyridazin-3-yl}-2-methylbenzamide]		40
